Measured values as given in patent publication US20090018134A1, “Compounds - 945” (AstraZeneca AB, priority 2007, published 2009).
Read-outs that look alike come from different tables or passages of the source. One block for each molecule: values may come before it.

Molecular target: T1, mTOR (Homo sapiens, UniProt P42345)
T1 construct: FLAG; made in house
Assay: In Vitro mTOR Kinase Assay (Echo), Test (a)(ii)
Assay type: biochemical
How it was run: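 Inhibition of truncated mTOR (1362-2549, FLAG-tagged, purified from stably transfected HEK293 cells) is measured as reduced AlphaScreen signal from a phospho-T389-recognising antibody bound to the biotinylated peptide product. Kinase incubation lasts 2 hours at room temperature. Potency is given as IC50.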

[1] = table of enzyme assay Test (a)(ii), read-out: Test (a)(ii) IC50
[2] = read-out: mTOR Kinase Assay (Echo)

T1 sequence (P42345 1362-2549): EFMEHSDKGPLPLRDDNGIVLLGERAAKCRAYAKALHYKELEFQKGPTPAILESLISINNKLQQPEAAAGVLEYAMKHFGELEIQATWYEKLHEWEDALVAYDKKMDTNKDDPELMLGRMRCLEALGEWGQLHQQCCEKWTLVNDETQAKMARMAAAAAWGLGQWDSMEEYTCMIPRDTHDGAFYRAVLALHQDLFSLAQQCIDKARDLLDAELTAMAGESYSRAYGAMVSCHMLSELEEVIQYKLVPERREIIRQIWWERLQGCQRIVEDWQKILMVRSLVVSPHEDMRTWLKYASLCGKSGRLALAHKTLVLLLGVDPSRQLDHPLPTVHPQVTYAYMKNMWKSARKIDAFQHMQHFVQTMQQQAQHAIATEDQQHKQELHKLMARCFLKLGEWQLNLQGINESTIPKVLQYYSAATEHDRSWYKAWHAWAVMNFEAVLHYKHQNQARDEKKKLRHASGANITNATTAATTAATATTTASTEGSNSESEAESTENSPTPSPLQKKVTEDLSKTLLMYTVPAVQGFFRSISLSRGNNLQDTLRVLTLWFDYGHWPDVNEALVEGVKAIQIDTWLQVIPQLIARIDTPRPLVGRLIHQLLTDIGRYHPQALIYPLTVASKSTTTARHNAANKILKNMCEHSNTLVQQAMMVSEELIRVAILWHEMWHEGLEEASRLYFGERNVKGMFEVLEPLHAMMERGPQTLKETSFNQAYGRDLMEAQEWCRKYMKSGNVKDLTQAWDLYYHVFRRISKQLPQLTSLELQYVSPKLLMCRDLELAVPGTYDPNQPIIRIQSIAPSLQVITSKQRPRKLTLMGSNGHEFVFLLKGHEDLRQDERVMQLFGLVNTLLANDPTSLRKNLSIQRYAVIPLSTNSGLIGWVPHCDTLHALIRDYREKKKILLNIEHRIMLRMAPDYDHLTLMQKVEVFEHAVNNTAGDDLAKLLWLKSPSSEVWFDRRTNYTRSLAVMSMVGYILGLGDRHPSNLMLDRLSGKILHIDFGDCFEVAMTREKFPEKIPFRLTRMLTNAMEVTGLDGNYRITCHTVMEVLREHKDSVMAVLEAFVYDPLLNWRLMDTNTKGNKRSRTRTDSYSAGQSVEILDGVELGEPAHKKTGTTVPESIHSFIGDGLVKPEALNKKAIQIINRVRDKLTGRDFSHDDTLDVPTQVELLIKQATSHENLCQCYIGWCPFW

Molecule: CCNC(=O)Nc1ccc(-c2nc(N3CCOC[C@@H]3C)cc(C3(S(=O)(=O)c4c(C)noc4C)CC3)n2)cc1 [Example 59f, 3-[4-[4-[1-[(3,5-dimethyl-1,2-oxazol-4-yl)sulfonyl]cyclopropyl]-6-[(3S)-3-methylmorpholin-4-yl]pyrimidin-2-yl]phenyl]-1-ethylurea]
IC50 [1]: 49.1 nM

Molecule: CNC(=O)Nc1ccc(-c2nc(N3CCOC[C@@H]3C)cc(C3(S(C)(=O)=O)CCCC3)n2)cn1 [Example 14o, 3-methyl-1-[5-[4-[(3S)-3-methylmorpholin-4-yl]-6-(1-methylsulfonylcyclopentyl)pyri-midin-2-yl]pyridin-2-yl]urea]
IC50 [1]: 21.7 nM

Molecule: CCNC(=O)Nc1ccc(-c2nc(N3[C@@H](C)COC[C@@H]3C)cc(C3(S(C)(=O)=O)CC3)n2)cc1 [Example 91b, 1-[4-[4-[(3S,5S)-3,5-dimethylmorpholin-4-yl]-6-(1-methylsulfonylcyclopropyl)pyrimidin-2-yl]phenyl]-3-ethylurea]
IC50 [1]: 5.21 nM

Molecule: C[C@H]1COCCN1c1cc(C2(S(=O)(=O)c3ccccc3C(F)(F)F)CC2)nc(-c2ccc(NC(=O)Nc3ccc(C(F)(F)F)cc3)cc2)n1 [Example 10j, 1-[4-[4-[(3S)-3-methylmorpholin-4-yl]-6-[1-[2-(trifluoromethyl)phenyl]sulfonylcyclopropyl]pyrimidin-2-yl]phenyl]-3-[4-(trifluoromethyl)phenyl]urea]
IC50 [2]: 110 nM

Molecule: C[C@H]1COCCN1c1cc(C2(S(=O)(=O)c3ccccn3)CC2)nc(-c2ccc(NC(=O)NCC(F)F)cc2)n1 [Example 64af, 3-(2,2-difluoroethyl)-1-[4-[4-[(3S)-3-methylmorpholin-4-yl]-6-(1-pyridin-2-ylsulfonylcyclopropyl)pyrimidin-2-yl]phenyl]urea]
IC50 [1]: 3.39 nM

Molecule: C[C@H]1COCCN1c1cc(C2(S(=O)(=O)c3cc(F)ccc3F)CC2)nc(-c2ccc(NC(=O)Nc3cnn(C)c3)cc2)n1 [Example 60f, 1-[4-[4-[1-(2,5-difluorophenyl)sulfonylcyclopropyl]-6-[(3S)-3-methylmorpholin-4-yl]pyrimidin-2-yl]phenyl]-3-(1-methylpyrazol-4-yl)urea]
IC50 [1]: 17.3 nM

Molecule: C[C@H]1COCCN1c1cc(C2(S(=O)(=O)c3cncc(F)c3)CC2)nc(-c2ccc(NC(=O)NC3CC3)cc2)n1 [Example 17c, 3-cyclopropyl-1-[4-[4-[1-(5-fluoropyridin-3-yl)sulfonylcyclopropyl]-6-[(3S)-3-methylmorpholin-4-yl]pyrimidin-2-yl]phenyl]urea]
IC50 [1]: 1.79 nM

Molecule: C[C@H]1COCCN1c1cc(C2(S(C)(=O)=O)CCCC2)nc(-c2ccc(NC(=O)Nc3cnn(C)c3)nc2)n1 [Example 14r, 1-[5-[4-[(3S)-3-methylmorpholin-4-yl]-6-(1-methylsulfonylcyclopentyl)pyri-midin-2-yl]pyridin-2-yl]-3-(1-methylpyrazol-4-yl)urea]
IC50 [1]: 10.3 nM

Molecule: C[C@H]1COCCN1c1cc(C2(S(C)(=O)=O)CC2)nc(-c2ccc(NC(=S)Nc3cnn(C)c3)cc2)n1 [Example 37o, 1-[4-[4-[(3S)-3-methylmorpholin-4-yl]-6-(1-methylsulfonylcyclopropyl)pyri-midin-2-yl]phenyl]-3-(1-methylpyrazol-4-yl)thiourea]
IC50 [1]: 33 nM

Molecule: C[C@H]1COCCN1c1cc(C2(S(=O)(=O)c3ccccc3F)CC2)nc(-c2ccc(NC(=O)NC3CC3)cc2)n1 [Example 58a, 3-cyclopropyl-1-[4-[4-[1-(2-fluorophenyl)sulfonylcyclopropyl]-6-[(3S)-3-methylmorpholin-4-yl]pyrimidin-2-yl]phenyl]urea]
IC50 [1]: 3.39 nM

Molecule: 3-(2,2-difluoroethyl)-1-[4-[4-[1-(2,4-difluorophenyl)sulfonylcyclopro-pyl]-6-[(3S)-3-methylmorpholin-4-yl]pyrimidin-2-yl]phenyl]urea [Example 57d]
IC50 [1]: 10 nM

Molecule: C[C@H]1COCCN1c1cc(C2(S(=O)(=O)c3ccc(F)c(Cl)c3)CC2)nc(-c2ccc(NC(=O)NC3CC3)cc2)n1 [Example 95b, 1-[4-[4-[1-(3-chloro-4-fluorophenyl)sulfonyl-cyclopropyl]-6-[(3S)-3-methylmorpholin-4-yl]pyrimidin-2-yl]phenyl]-3-cyclopropylurea]
IC50 [1]: 19 nM

Molecule: Cc1ccc(F)cc1S(=O)(=O)C1(c2cc(N3CCOC[C@@H]3C)nc(-c3ccc(NC(=O)Nc4cnn(C)c4)cc3)n2)CC1 [Example 61f, 1-[4-[4-[1-(5-fluoro-2-methylphenyl)sulfonylcyclopropyl]-6-[(3S)-3-methylmorpholin-4-yl]pyrimidin-2-yl]phenyl]-3-(1-methylpyrazol-4-yl)urea]
IC50 [1]: 32.8 nM

Molecule: C[C@H]1COCCN1c1cc(C2(S(=O)(=O)c3ccccc3C(F)(F)F)CC2)nc(-c2ccc(NC(=O)NCCN(C)C)cc2)n1 [Example 10f, 3-(2-dimethylaminomethyl)-1-[4-[4-[(3S)-3-methylmorpholin-4-yl]-6-[1-[2-(trifluoromethyl)phenyl]sulfonylcyclopropyl]pyrimidin-2-yl]phenyl]urea]
IC50 [2]: 174 nM

The next lines start with the values.

IC50 [1]: 41.8 nM
Molecule: Cc1nc(C)c(S(=O)(=O)C2(c3cc(N4CCOC[C@@H]4C)nc(-c4ccc(NC(=O)NC5CC5)cc4)n3)CC2)s1 [Example 78, 3-Cyclopropyl-1-[4-[4-[1-[(2,4-dimethyl-1,3-thiazol-5-yl)sulfonyl]cyclopropyl]-6-[(3S)-3-methylmorpholin-4-yl]pyrimidin-2-yl]phenyl]urea]

IC50 [2]: 2.34 nM
Molecule: CCCNC(=O)Nc1ccc(-c2nc(N3CCOC[C@@H]3C)cc(C3(S(C)(=O)=O)CCC3)n2)cc1 [Example 5h, 1-[4-[4-[(3S)-3-methylmorpholin-4-yl]-6-(1-methylsulfonylcyclobutyl)pyrimidin-2-yl]phenyl]-3-propyl-urea]

IC50 [1]: 28.7 nM
Molecule: O=C(NCCCO)Nc1ccc(-c2nc(N3CCOCC3)cc(C3(S(=O)(=O)C4CC4)CCCC3)n2)cc1 [Example 13o, 1-[4-[4-(1-cyclopropylsulfonylcyclopentyl)-6-morpholin-4-ylpyrimidin-2-yl]phenyl]-3-(3-hydroxypropyl)urea]

IC50 [1]: 12.4 nM
Molecule: C[C@H]1COCCN1c1cc(C2(S(=O)(=O)c3ccc(C#N)cc3Cl)CC2)nc(-c2ccc(NC(=O)NCCO)cc2)n1 [Example 85j, 1-[4-[4-[1-(2-chloro-4-cyanophenyl)sulfonylcyclopropyl]-6-[(3S)-3-methylmorpholin-4-yl]pyrimidin-2-yl]phenyl]-3-(2-hydroxyethyl)urea]

IC50 [1]: 7.33 nM
Molecule: CS(=O)(=O)C1(c2cc(N3CCOCC3)nc(-c3ccc(NC(=O)NCCC#N)cc3)n2)CC1 [Example 36r, 3-(2-cyanoethyl)-1-[4-[4-(1-methylsulfonylcyclopropyl)-6-morpholin-4-ylpyrimidin-2-yl]phenyl]urea]

IC50 [1]: 152 nM
Molecule: C[C@H]1COCCN1c1cc(C2(S(=O)(=O)C3CC3)CC2)nc(-c2cnc(NC(=O)NCCO)nc2)n1 [Example 14y, 1-[5-[4-(1-cyclopropylsulfonylcyclopropyl)-6-[(3S)-3-methylmorpholin-4-yl]pyrimidin-2-yl]pyrimidin-2-yl]-3-(2-hydroxyethyl)urea]

IC50 [2]: 2.73 nM
Molecule: CCCNC(=O)Nc1ccc(-c2nc(N3CCOCC3)cc(C3(S(C)(=O)=O)CC3)n2)cc1 [Example 12g, 1-[4-[4-(1-methylsulfonylcyclopropyl)-6-morpholin-4-ylpyrimidin-2-yl]phenyl]-3-propylurea]

IC50 [1]: 6.88 nM
Molecule: C[C@H]1COCCN1c1cc(C2(S(=O)(=O)c3ccc(F)cc3)CCC2)nc(-c2ccc(NC(=O)NCCCO)cc2)n1 [Example 65a, 1-[4-[4-[1-(4-fluorophenyl)sulfonylcyclobutyl]-6-[(3S)-3-methylmorpholin-4-yl]pyrimidin-2-yl]phenyl]-3-(3-hydroxypropyl)urea]
